According to patent publication US10793577B2, “Fused bicyclic compounds for the treatment of disease” (AKARNA THERAPEUTICS, LTD., priority 2014, dated 2020):
pEC50: −log10 of the molar value.

What follows are compounds tested against T1, FXR (Homo sapiens, UniProt Q96RI1) (assay: FXR agonist transactivation assay (luciferase reporter)). Details: transiently transfected cells, 18 h stimulation with test compound, luciferase normalized to Renilla.
T1 construct: expressed in transfected cells
T1 sequence (Q96RI1 1-486): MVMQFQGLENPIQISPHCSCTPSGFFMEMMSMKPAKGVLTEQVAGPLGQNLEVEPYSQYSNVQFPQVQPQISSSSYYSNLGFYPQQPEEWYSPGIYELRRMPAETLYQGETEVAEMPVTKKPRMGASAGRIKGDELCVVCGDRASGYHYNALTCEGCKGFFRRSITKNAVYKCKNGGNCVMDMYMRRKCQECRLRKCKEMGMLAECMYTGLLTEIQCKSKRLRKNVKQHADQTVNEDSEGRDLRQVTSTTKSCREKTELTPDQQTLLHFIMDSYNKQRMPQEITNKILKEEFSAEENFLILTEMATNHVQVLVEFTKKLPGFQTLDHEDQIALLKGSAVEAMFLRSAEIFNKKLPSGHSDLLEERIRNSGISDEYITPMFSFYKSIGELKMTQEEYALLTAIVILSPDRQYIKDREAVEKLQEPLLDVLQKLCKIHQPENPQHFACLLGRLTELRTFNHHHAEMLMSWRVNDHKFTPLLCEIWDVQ
Assay type: cell-based
Protocol: Example 21: FXR Agonist Transactivation Assay
For the transactivation assay, cells were transiently transfected with 100 ng of reporter vector and 10 ng of expression plasmid. Forty nanograms of pGL4.74 was used as internal control for transfection efficiency. The pGEM vector was added to normalize the amounts of DNA transfected in each assay (2 μg). All transfections were performed using FuGENE HD (Roche, Mannheim, Germany) according to the manufacturer's protocol. Twenty-four hours after transfection, cells were stimulated with increasing concentrations of the test compounds for further 18 h. Control cultures receive vehicle (0.1% DMSO) alone. Luciferase values were normalized with Renilla reniformis luciferase units, for transfection efficiency.

Row | pEC50 | Compound
1 | 5.00 to 6.00 | CC(C)OC(=O)C1=CN(C(=O)c2ccc(Cl)c(Cl)c2)CC(C)(C)c2c1[nH]c1ncc(Cl)cc21 [Compound 9, Propan-2-yl 4-chloro-12-(3,4-dichlorobenzoyl)-14,14-dimethyl-6,8,12-triazatricyclo[7.5.0.02,7]tetradeca-1(9),2,4,6,10-pentaene-10-carboxylate]
2 | > 6.00 | CC(C)OC(=O)C1=CN(C(=O)c2ccc(F)c(F)c2)CC(C)(C)c2c1[nH]c1ncc(Cl)cc21 [Compound 10, propan-2-yl 4-chloro-12-(3,4-difluorobenzoyl)-14,14-dimethyl-6,8,12-triazatricyclo[7.5.0.02,7]tetradeca-1(9),2,4,6,10-pentaene-10-carboxylate]
3 | 5.00 to 6.00 | CC(C)OC(=O)C1=CN(C(=O)c2ccc(F)cc2)CC(C)(C)c2c1[nH]c1ncc(Cl)cc21 [Compound 11, propan-2-yl 4-chloro-12-(4-fluorobenzoyl)-14,14-dimethyl-6,8,12-triazatricyclo[7.5.0.02,7]tetradeca-1(9),2,4,6,10-pentaene-10-carboxylate]
4 | > 6.00 | CC(C)OC(=O)C1=CN(C(=O)c2ccc(F)c(F)c2)CC(C)(C)c2c1[nH]c1cc(Cl)cnc21 [Compound 22, Propan-2-yl 5-chloro-12-(3,4-difluorobenzoyl)-14,14-dimethyl-3,8,12-triazatricyclo[7.5.0.02,7]tetradeca-1(9),2,4,6,10-pentaene-10-carboxylate]
5 | > 6.00 | CC(C)OC(=O)C1=CN(C(=O)c2ccc(F)c(F)c2)CC(C)(C)c2c1[nH]c1cc(F)cnc21 [Compound 33]
6 | > 6.00 | COc1ccc2[nH]c3c(c2n1)C(C)(C)CN(C(=O)c1ccc(F)c(F)c1)C=C3C(=O)OC(C)C [Compound 42, Propan-2-yl 12-(3,4-difluorobenzoyl)-14,14-dimethyl-4-methoxy-3,8,12-triazatricyclo[7.5.0.02,7]tetradeca-1(9),2,4,6,10-pentaene-10-carboxylate]
7 | > 6.00 | COc1ccc2[nH]c3c(c2n1)C(C)(C)CN(C(=O)c1ccc(F)cc1)C=C3C(=O)OC(C)C [Compound 43, propan-2-yl 12-(4-fluorobenzoyl)-14,14-dimethyl-4-methoxy-3,8,12-triazatricyclo[7.5.0.02,7]tetradeca-1(9),2,4,6,10-pentaene-10-carboxylate]
8 | > 6.00 | CC(C)OC(=O)C1=CN(C(=O)c2ccc(F)c(F)c2)CC(C)(C)c2c1[nH]c1cccnc21 [Compound 55, Propan-2-yl 12-(3,4-difluorobenzoyl)-14,14-dimethyl-3,8,12-triazatricyclo[7.5.0.02,7]tetradeca-1(9),2,4,6,10-pentaene-10-carboxylate]
9 | > 6.00 | CCOC(=O)C1=CN(C(=O)c2ccc(F)c(F)c2)CC(C)(C)c2c1[nH]c1cccnc21 [Compound 56, eth-2-yl 12-(3,4-difluorobenzoyl)-14,14-dimethyl-3,8,12-triazatricyclo[7.5.0.02,7]tetradeca-1(9),2,4,6,10-pentaene-10-carboxylate]
10 | > 6.00 | CC(C)OC(=O)C1=CN(C(=O)c2ccc(F)c(F)c2)CC(C)(C)c2c1[nH]c1ncccc21 [Compound 57, propan-2-yl 12-(3,4-difluorobenzoyl)-14,14-dimethyl-6,8,12-triazatricyclo[7.5.0.02,7]tetradeca-1(9),2,4,6,10-pentaene-10-carboxylate]
11 | > 6.00 | CCOC(=O)C1=CN(C(=O)c2ccc(F)c(F)c2)CC(C)(C)c2c1[nH]c1ncccc21 [Compound 58, eth-2-yl 12-(3,4-difluorobenzoyl)-14,14-dimethyl-6,8,12-triazatricyclo[7.5.0.02,7]tetradeca-1(9),2,4,6,10-pentaene-10-carboxylate]
12 | > 6.00 | CC(C)OC(=O)C1=CN(C(=O)c2ccc(F)c(F)c2)CC(C)(C)c2c1[nH]c1ncc(F)cc21 [Compound 59, propan-2-yl 4-fluoro-12-(3,4-difluorobenzoyl)-14,14-dimethyl-6,8,12-triazatricyclo[7.5.0.02,7]tetradeca-1(9),2,4,6,10-pentaene-10-carboxylate]
13 | 5.00 to 6.00 | CC(C)OC(=O)C1=CN(C(=O)c2ccc(F)c(F)c2)CC(C)(C)c2c1[nH]c1cc(OCCO)c(Cl)nc21 [Compound 72, Propan-2-yl 12-(3,4-difluorobenzoyl)-14,14-dimethyl-5-(2-hydroxyethoxy)-4-chloro-3,8,12-triazatricyclo[7.5.0.02,7]tetradeca-1(9),2,4,6,10-pentaene-10-carboxylate]
14 | > 6.00 | CC(C)OC(=O)C1=CN(C(=O)c2ccc(F)c(F)c2)CC(C)(C)c2c1[nH]c1ccc(OCCO)nc21 [Compound 84, Propan-2-yl 12-(3,4-difluorobenzoyl)-14,14-dimethyl-4-(2-hydroxyethoxy)-3,8,12-triazatricyclo[7.5.0.02,7]tetradeca-1(9),2,4,6,10-pentaene-10-carboxylate]
15 | > 6.00 | CC(C)NC(=O)C1=CN(C(=O)c2ccc(F)c(F)c2)CC(C)(C)c2c1[nH]c1cc(Cl)cnc21 [Compound 85, 3-chloro-8-(3,4-difluorobenzoyl)-N-isopropyl-10,10-dimethyl-5,8,9,10-tetrahydropyrido[2′,3′:4,5]pyrrolo[2,3-d]azepine-6-carboxamide]
16 | > 6.00 | COc1ccc2[nH]c3c(c2n1)C(C)(C)CN(C(=O)c1ccc(OCCN2CCOCC2)cc1)C=C3C(=O)OC(C)C [Compound 91, propan-2-yl 12-(4-(2-morpholinoethoxy)benzoyl)-14,14-dimethyl-4-(methoxy)-3,8,12-triazatricyclo[7.5.0.02,7]tetradeca-1(9),2,4,6,10-pentaene-10-carboxylate]
17 | > 6.00 | COc1nc2c3c([nH]c2cc1Cl)C(C(=O)OC(C)C)=CN(C(=O)c1ccc(F)c(F)c1)CC3(C)C [Compound 101, propan-2-yl 5-chloro-4-methoxy-12-(3,4-difluorobenzoyl)-14,14-dimethyl-3,8,12-triazatricyclo[7.5.0.02,7]tetradeca-1(9),2,4,6,10-pentaene-10-carboxylate]
18 | > 6.00 | propan-2-yl 4-chloro-12-(4-(2-morpholinoethoxy)benzoyl)-14,14-dimethyl-6,8,12-triazatricyclo[7.5.0.02,7]tetradeca-1(9),2,4,6,10-pentaene-10-carboxylate [Compound 89]
